Drawing on US7834023B2 (Portola Pharmaceuticals, Inc., priority 2006, dated 2010), this text covers IC50 for six molecules.

For experiment [1], the system named is human platelet-rich plasma (PRP). Briefly: PRP assay: inhibition of ADP-mediated platelet aggregation in vitro. Format: cell-based. The following applies: ADP-induced aggregation. As to the method:
The effect of testing the compound according to the invention on ADP-induced human platelet aggregation was assessed in a 96-well microtiter assay (see generally the procedures in Jantzen, H. M. et al. (1999) Thromb. Hemost. 81:111-117) or standard cuvette light transmittance aggregometry using either human platelet-rich plasma (PRP) or human washed platelets.
For preparation of human platelet-rich plasma for aggregation assays, human venous blood was collected from healthy, drug-free volunteers into 0.38% sodium citrate (0.013 M, pH 7.0 final). Platelet-rich plasma (PRP) is prepared by centrifugation of whole blood at 160×g for 20 minutes at room temperature. The PRP layer is removed, transferred to a new tube, and the platelet count is adjusted, if necessary, to achieve a platelet concentration of ˜3×10^8 platelets/ml using platelet-poor plasma (PPP). PPP is prepared by centrifugation of the remaining blood sample (after removal of PRP) for 20 minutes at 800×g. This preparation of PRP can subsequently be used for aggregation assays in either a 96-well plate or standard cuvette aggregometry.
For cuvette light transmittance aggregation assays, serial dilutions (1:3) of test compounds were prepared in 100% DMSO in a 96 well V-bottom plate (final DMSO concentration in the cuvette was 0.6%). The test compound (3 μl of serial dilutions in DMSO) was preincubated with PRP for 30-45 seconds prior to initiation of aggregation reactions, which were performed in a ChronoLog aggregometer by addition of agonist (5 or 10 μM ADP) to 490 μL of PRP at 37° C. In some cases, light transmittance aggregometry was performed using 490 μL of washed platelets (prepared as described above) at 37° C., and aggregation was initiated by addition of 5 μM ADP and 0.5 mg/ml human fibrinogen (American Diagnostics, Inc., Greenwich, Conn.). The aggregation reaction is recorded for ˜5 min, and maximum extent of aggregation is determined by the difference in extent of aggregation at baseline, compared to the maximum aggregation that occurs during the five minute period of the assay. Inhibition of aggregation was calculated as the maximum aggregation observed in the presence of inhibitor, compared to that in the absence of inhibitor. IC50s were derived by non-linear regression analysis using the Prism software (GraphPad, San Diego, Calif.).
Inhibition of ADP-dependent aggregation was also determined in 96-well flat-bottom microtiter plates using a microtiter plate shaker and plate reader similar to the procedure described by Frantantoni et al., Am. J. Clin. Pathol. 94, 613 (1990). All steps are performed at room temperature. For 96-well plate aggregation using platelet-rich plasma (PRP), the total reaction volume of 0.2 ml/well includes 180 μl of PRP (˜3×10^8 platelets/ml, see above), 6 μl of either serial dilution of test compounds in 20% DMSO or buffer (for control wells), and 10 μl of 20×ADP agonist solution (100 μM). The OD of the samples is then determined at 450 nm using a microtiter plate reader (Softmax, Molecular Devices, Menlo Park, Calif.) resulting in the 0 minute reading. The plates are then agitated for 5 min on a microtiter plate shaker and the 5 minute reading is obtained in the plate reader. Aggregation is calculated from the decrease of OD at 450 nm at t=5 minutes compared to t=0 minutes and is expressed as % of the decrease in the ADP control samples after correcting for changes in the unaggregated control samples. IC50s were derived by non-linear regression analysis.

For a further experiment, the target named is T1, P2Y12 receptor (Homo sapiens, UniProt Q9H244).
T1 construct: endogenous in cells; host or cells: human platelets (outdated from blood banks or fresh), apyrase-washed, whole
In words: platelet ADP receptor binding assay (ARB): inhibition of [3H]2-MeS-ADP binding to platelets. To be noted: [3H]2-MeS-ADP binding to apyrase-washed human platelets. The method in brief:
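Apyrase-washed human platelets (1×10^8 per well) were preincubated 5 min with serial compound dilutions in Hepes-Tyrode's/0.1% BSA/0.6% DMSO, then incubated 15 min at room temperature with 1 nM [3H]2-MeS-ADP. Filter-bound radioactivity gave specific binding (nonspecific: 10 μM 2-MeS-ADP), and IC50s came from non-linear regression.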

SMILES strings stand for the structures. pIC50: −log10 of the molar value. Where only a bound is given, the exact number is not on record here.

T1 sequence (Q9H244 whole entry): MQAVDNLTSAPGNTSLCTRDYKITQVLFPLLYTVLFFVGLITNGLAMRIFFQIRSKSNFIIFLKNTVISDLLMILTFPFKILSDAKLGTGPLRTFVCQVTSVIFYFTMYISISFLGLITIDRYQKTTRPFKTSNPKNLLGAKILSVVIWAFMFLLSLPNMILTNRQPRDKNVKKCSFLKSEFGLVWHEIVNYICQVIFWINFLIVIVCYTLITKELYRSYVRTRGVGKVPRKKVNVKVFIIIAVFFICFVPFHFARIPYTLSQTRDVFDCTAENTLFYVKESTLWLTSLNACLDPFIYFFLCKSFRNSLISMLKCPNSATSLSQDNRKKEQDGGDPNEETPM

By pIC50 is commonly meant the negative decadic logarithm of the IC50, by convention in mol/L. Turning to `CNc1cc2c(cc1F)C(=O)N(c1ccc(C(=O)N[C@@H](C(=O)O)c3ccc(Cl)s3)cc1)CO2` [Compound 62, (S)-2-(5-chlorothiophen-2-yl)-2-(4-(6-fluoro-7-(methylamino)-4-oxo-2H-benzo[e][1,3]oxazin-3(4H)-yl)benzaamido)acetic acid], the pIC50 was below 4.52 in experiment [1] (Homo sapiens, Platelet) and above 7.30 at P2Y12 receptor.

Regarding `CNc1cc2[nH]c(=O)n(-c3ccc(C(=O)NC(c4noc(=O)[nH]4)c4ccc(Cl)s4)cc3)c(=O)c2cc1F` (stereo not drawn) [Compound 21, N-((5-chlorothiophen-2-yl)(5-oxo-4,5-dihydro-1,2,4-oxadiazol-3-yl)methyl)-4-(6-fluoro-7-(methylamino)-2,4-dioxo-1,2-dihydroquinazolin-3(4H)-yl)benzamide], the pIC50 was above 5.00 in experiment [1] (Homo sapiens, Platelet) and above 7.30 on P2Y12 receptor.

For the molecule `CNc1cc2[nH]c(=O)n(-c3ccc(C(=O)NC(C(=O)O)c4ccc(Cl)s4)cc3)c(=O)c2cc1F` (stereo not drawn) [Compound 5, 2-(5-chlorothiophen-2-yl)-2-(4-(6-fluoro-7-(methylamino)-2,4-dioxo-1,2-dihydroquinazolin-3(4H)-yl)benzamido)acetic acid], the pIC50 was 4.52 to 5.00 in experiment [1] and above 7.30 on P2Y12 receptor.

Consider `CNc1cc2[nH]c(=O)n(-c3ccc(C(=O)N(CC(=O)O)Cc4ccc(Cl)s4)cc3)c(=O)c2cc1F` [Compound 6, 2-(N-((5-chlorothiophen-2-yl)methyl)-4-(6-fluoro-7-(methylamino)-2,4-dioxo-1,2-dihydroquinazolin-3(4H)-yl)benzamido)acetic acid], for which the pIC50 in experiment [1] (Homo sapiens, Platelet) is below 4.52; on P2Y12 receptor it was 6.30 to 7.30.

Take `CNc1cc2[nH]c(=O)n(-c3ccc(C(=O)NC(c4nnn[nH]4)c4ccc(Cl)s4)cc3)c(=O)c2cc1F` (stereo not drawn) [Compound 7, N-((5-chlorothiophen-2-yl)(1H-tetrazol-5yl)methyl)-4-(6-fluoro-7-(methylamino)-2,4-dioxo-1,2-dihydroquinazolin-3(4H)-yl)benzamide]: the pIC50 in experiment [1] (Homo sapiens, Platelet) is above 5.00; on P2Y12 receptor, above 7.30.

On to `CNc1cc2[nH]c(=O)n(-c3ccc(C(=O)NC(c4noc(=S)[nH]4)c4ccc(Cl)s4)cc3)c(=O)c2cc1F` (stereo not drawn) [Compound 32, N-((5-chlorothiophen-2-yl)(5-thioxo-4,5-dihydro-1,2,4-oxadiazol-3-yl)methyl)-4-(6-fluoro-7-(methylamino)-2,4-dioxo-1,2-dihydroquinazolin-3(4H)-yl)benzamide], for which the pIC50 in experiment [1] (Homo sapiens, Platelet) is above 5.00; at P2Y12 receptor it was 6.30 to 7.30.
